The target of assay [1] is T1, HCV NS3/4A protease complex (BMS strain, genotype 1a) (Hepatitis C virus genotype 1a, UniProt P27958, C1454S).
T1 construct: DNA encoding the recombinant HCV NS3/4A protease complex (amino acids 1027 to 1711) for these strains; inferred from the pET21b vector and Ni-NTA purification; made in house; host or cells: Escherichia coli BL21 (DE3), pET21b
As to the kind of experiment: Recombinant HCV NS3/4A protease complex FRET peptide assay, BMS strain. Type of assay: biochemical. Particulars: NS3/4A BMS Strain. An excerpt:
The purpose of this in vitro assay was to measure the inhibition of HCV NS3 protease complexes, derived from the BMS, H77C or J416S strains, as described below, by compounds of the present invention.
Serum from an HCV-infected patient was obtained from Dr. T. Wright, San Francisco Hospital. An engineered full-length cDNA (compliment deoxyribonucleic acid) template of the HCV genome (BMS strain) was constructed from DNA fragments obtained by reverse transcription-PCR (RT-PCR) of serum RNA (ribonucleic acid) and using primers selected on the basis of homology between other genotype 1a strains. […] The infectious clones, H77C (1a genotype) and J4L6S (1b genotype) were obtained from R. Purcell (NIH) and the sequences are published in Genbank (AAB67036, see Yanagi,M., Purcell,R. H., Emerson,S. U. and Bukh,J. Proc. Natl. Acad. Sci. U.S.A. 94(16),8738-8743 (1997); AF054247, see Yanagi,M., St Claire,M., Shapiro,M., Emerson,S. U., Purcell,R. H. and Bukh,J, Virology 244 (1), 161-172. (1998)).
The BMS, H77C and J4L6S strains were used for production of recombinant NS3/4A protease complexes. DNA encoding the recombinant HCV NS3/4A protease complex (amino acids 1027 to 1711) for these strains were manipulated as described by P. Gallinari et al. (see Gallinari P, Paolini C, Brennan D, Nardi C, Steinkuhler C, De Francesco R. Biochemistry. 38(17):5620-32, (1999)). Briefly, a three-lysine solubilizing tail was added at the 3′-end of the NS4A coding region. The cysteine in the P1 position of the NS4A-NS4B cleavage site (amino acid 1711) was changed to a glycine to avoid the proteolytic cleavage of the lysine tag. Furthermore, a cysteine to serine mutation was introduced by PCR at amino acid position 1454 to prevent the autolytic cleavage in the NS3 helicase domain. The variant DNA fragment was cloned in the pET21b bacterial expression vector (Novagen) and the NS3/4A complex was expressed in Escherichia. coli strain BL21 (DE3) (Invitrogen) following the protocol described by P. Gallinari et al. (see Gallinari P, Brennan D, Nardi C, Brunetti M, Tomei L, Steinkuhler C, De Francesco R., J. Virol. 72(8):6758-69 (1998)) with modifications. Briefly, NS3/4A expression was induced with 0.5 mM Isopropyl β-D-1-thiogalactopyranoside (IPTG) for 22 hr at 20° C. […] The cells were resuspended in lysis buffer (10 mL/g) consisting of 25 mM N-(2-Hydroxyethyl)Piperazine-N′-(2-Ethane Sulfonic acid) (HEPES), pH 7.5, 20% glycerol, 500 mM Sodium Chloride (NaCl), 0.5% Triton-X100, 1 ug/ml lysozyme, 5 mM Magnesium Chloride (MgCl2), 1 ug/ml DnaseI, 5 mM β-Mercaptoethanol (βME), Protease inhibitor—Ethylenediamine Tetraacetic acid (EDTA) free (Roche), homogenized and incubated for 20 mins at 4° C. The homogenate was sonicated and clarified by ultra-centrifugation at 235000 g for 1 hr at 4° C. Imidazole was added to the supernatant to a final concentration of 15 mM and the pH adjusted to 8.0. The crude protein extract was loaded on a Nickel-Nitrilotriacetic acid (Ni-NTA) column pre-equilibrated with buffer B (25 mM HEPES, pH 8.0, 20% glycerol, 500 mM NaCl, 0.5% Triton-X100, 15 mM imidazole, 5 mM βME). The sample was loaded at a flow rate of 1 mL/min. The column was washed with 15 column volumes of buffer C (same as buffer B except with 0.2% Triton-X100). The protein was eluted with 5 column volumes of buffer D (same as buffer C except with 200 mM Imidazole).
NS3/4A protease complex-containing fractions were pooled and loaded on a desalting column Superdex-S200 pre-equilibrated with buffer D (25 mM HEPES, pH7.5, 20% glycerol, 300 mM NaCl, 0.2% Triton-X100, 10 mM βME).

Assay [2] deals with HCV replicon in Huh7 cells. As to the kind of experiment: HCV replicon cell-based assay (FRET). Particulars: HCV replicon, read-out: EC50 range. An excerpt: An HCV replicon whole cell system was established as described by Lohmann V, Korner F, Koch J, Herian U, Theilmann L, Bartenschlager R., Science 285(5424):110-3 (1999). This system enabled us to evaluate the effects of our HCV Protease compounds on HCV RNA replication. Briefly, using the HCV strain 1B sequence described in the Lohmann paper (Assession number: AJ238799), an HCV cDNA was generated encoding the 5′ internal ribosome entry site (IRES), the neomycin resistance gene, the EMCV (encephalomyocarditis viurs)-IRES and the HCV nonstructural proteins, NS3-NS5B, and 3′ non-translated region (NTR). In vitro transcripts of the cDNA were transfected into the human hepatoma cell line, Huh7. […] Resulting cell lines were characterized for positive and negative strand RNA production and protein production over time.
Huh7 cells, constitutively expressing the HCV replicon, were grown in Dulbecco's Modified Eagle Media (DMEM) containing 10% Fetal calf serum (FCS) and 1 mg/ml G418 (Gibco-BRL). Cells were seeded the night before (1.5×10^4 cells/well) in 96-well tissue-culture sterile plates. Compound and no compound controls were prepared in DMEM containing 4% FCS, 1:100 Penicillin/Streptomysin, 1:100 L-glutamine and 5% DMSO in the dilution plate (0.5% DMSO final concentration in the assay). Compound/DMSO mixes were added to the cells and incubated for 4 days at 37° C. After 4 days, plates were rinsed thoroughly with Phosphate-Buffered Saline (PBS) (3 times 150 μl). The cells were lysed with 25 μl of a lysis assay reagent containing the FRET peptide (RET S1, as described for the in vitro enzyme assay). The lysis assay reagent was made from 5× cell Luciferase cell culture lysis reagent(Promega #E153A) diluted to 1× with distilled water, NaCl added to 150 mM final, the FRET peptide diluted to 10 μM final from a 2 mM stock in 100% DMSO. The plate was then placed into the Cytofluor 4000 instrument which had been set to 340 nm excitation/490 emission, automatic mode for 21 cycles and the plate read in a kinetic mode. EC50 determinations were carried out as described for the IC50 determinations.
A general note: A replicon is a self-replicating genome or part of one, used to study replication in cells.

Read-outs that look alike come from different tables or passages of the source. A value given as a limit tells only on which side of the number the result lay.

T1 sequence (P27958 1658-1714, looked up, stated change not applied): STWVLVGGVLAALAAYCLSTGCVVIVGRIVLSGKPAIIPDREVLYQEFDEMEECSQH
T1 sequence (P27958 1027-1657, looked up, stated change not applied): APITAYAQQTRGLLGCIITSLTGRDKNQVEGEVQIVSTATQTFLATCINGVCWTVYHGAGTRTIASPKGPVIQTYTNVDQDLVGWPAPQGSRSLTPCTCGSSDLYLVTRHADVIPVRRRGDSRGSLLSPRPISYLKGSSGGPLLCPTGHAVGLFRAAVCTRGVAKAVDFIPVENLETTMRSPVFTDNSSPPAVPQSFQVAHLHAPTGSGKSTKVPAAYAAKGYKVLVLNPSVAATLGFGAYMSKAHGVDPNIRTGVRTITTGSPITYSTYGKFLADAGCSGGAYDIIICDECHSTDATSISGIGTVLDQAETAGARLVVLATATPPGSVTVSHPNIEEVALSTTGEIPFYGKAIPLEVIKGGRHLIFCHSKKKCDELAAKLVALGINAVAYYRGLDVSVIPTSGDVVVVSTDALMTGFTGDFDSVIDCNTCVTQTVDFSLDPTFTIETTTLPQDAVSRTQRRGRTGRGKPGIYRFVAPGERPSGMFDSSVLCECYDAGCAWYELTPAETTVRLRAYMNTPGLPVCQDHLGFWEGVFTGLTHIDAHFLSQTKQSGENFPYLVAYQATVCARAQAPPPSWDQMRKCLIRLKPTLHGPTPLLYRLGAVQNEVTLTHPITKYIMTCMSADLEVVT

One may read the IC50 as the concentration needed to halve the response being measured. Broadly, the EC50 is the concentration at which the effect is half-maximal. As to `C=CC1C[C@]1(NC(=O)[C@@H]1C[C@@H](Oc2cc(-c3ccccc3)nc3cc(OC)ccc23)CN1C(=O)[C@@H](NC(=O)OC(C)(C)C)C(C)(C)C)C(=O)NS(=O)(=O)C1(C(=O)Nc2c(C)noc2C)CC1` (some centres unmarked) [Compound 10, {1-[2-{1-[1-(3,5-Dimethylisoxazol-4-ylcarbamoyl)cyclopropanesul-fonylaminocarbonyl]-2-vinylcyclopropylcarbamoyl}-4-(7-methoxy-2-phenylquinolin-4-yloxy)pyrrolidine-1-carbon-yl]-2,2-dimethylpropyl}carbamicacid tert-butyl ester], the IC50 in assay [1] (IC50 range) is < 50 nM. For the same compound, the concentration for a half-maximal effect (EC50) in assay [2] (Hepatitis C virus, Huh-7) was < 50 nM.
Take `C=CC1C[C@]1(NC(=O)[C@@H]1C[C@@H](Oc2cc(-c3ccccc3)nc3cc(OC)ccc23)CN1C(=O)[C@@H](NC(=O)OC(C)(C)C)C(C)(C)C)C(=O)NS(=O)(=O)C1(Br)CC1` (some centres unmarked) [Compound 11, {1-[2-[1-(1-Bromocyclopropanesulfonylaminocarbonyl)-2-vinylcy-clopropylcarbamoyl]-4-(7-methoxy-2-phenylquinolin-4-yloxy)pyrrolidine-1-carbonyl]-2,2-dimethylpropyl}-carbamic acid tert-butyl ester]: in assay [1] (IC50 range), the IC50 is < 50 nM. Also, the concentration giving a half-maximal response (EC50) in assay [2] (Hepatitis C virus, Huh-7) was < 50 nM.
On to `C=C[C@@H]1C[C@]1(NC(=O)[C@@H]1C[C@@H](Oc2cc(-c3ccccc3)nc3cc(OC)ccc23)CN1C(=O)[C@@H](NC(=O)OC(C)(C)C)C(C)(C)C)C(=O)NS(=O)(=O)C1([Si](C)(C)C)CC1` [Compound 27], for which, in assay [1] (IC50 range), the IC50 was < 50 nM. For the same compound, the 50% effective concentration (EC50) in assay [2] (Hepatitis C virus, Huh-7) was < 50 nM.
Regarding `C=C[C@@H]1C[C@]1(NC(=O)[C@@H]1C[C@@H](Oc2cc(-c3ccccc3)nc3cc(OC)ccc23)CN1C(=O)[C@@H](NC(=O)OC(C)(C)C)C(C)(C)C)C(=O)NS(=O)(=O)C1(CC)CC1` [Compound 28], the IC50 in assay [1] (IC50 range) is < 50 nM. Also, in assay [2] (Hepatitis C virus, Huh-7), the EC50 was < 50 nM.
Turning to `C=C[C@@H]1C[C@]1(NC(=O)[C@@H]1C[C@@H](Oc2cc(-c3ccccc3)nc3cc(OC)ccc23)CN1C(=O)[C@@H](NC(=O)OC(C)(C)C)C(C)(C)C)C(=O)NS(=O)(=O)C1(CCC)CC1` [Compound 29, (1-{4-(7-Methoxy-2-phenyl-quinolin-4-yloxy)-2-[1-(1-propyl-cyclopropanesulfonylaminocarbonyl)-2-vinyl-cyclopropylcarbamoyl]-pyrrolidine-1-carbonyl}-2,2-dimethyl-propyl)-carbamic acid tert-butyl ester], the concentration for half-maximal inhibition (IC50) in assay [1] (IC50 range) was < 50 nM. Moreover, in assay [2] (Hepatitis C virus, Huh-7), the EC50 was < 50 nM.
In the case of `C=C[C@@H]1C[C@]1(NC(=O)[C@@H]1C[C@@H](Oc2cc(-c3ccccc3)nc3cc(OC)ccc23)CN1C(=O)[C@@H](NC(=O)OC(C)(C)C)C(C)(C)C)C(=O)NS(=O)(=O)C1(CCCC)CC1` [Compound 30, {1-[2-[1-(1-Butyl-cyclopropanesulfonylaminocarbonyl)-2-vinyl-cyclopropylcarbamoyl]-4-(7-methoxy-2-phenyl-quinolin-4-yloxy)-pyrrolidine-1-carbonyl]-2,2-dimethyl-propyl}-carbamic acid tert-butyl ester], the 50% inhibitory concentration (IC50) in assay [1] (IC50 range) is < 50 nM. Further, in assay [2] (Hepatitis C virus, Huh-7), the half-maximal effective concentration (EC50) is < 50 nM.
Turning to `C=C[C@@H]1C[C@]1(NC(=O)[C@@H]1C[C@@H](Oc2cc(-c3ccccc3)nc3cc(OC)ccc23)CN1C(=O)[C@@H](NC(=O)OC(C)(C)C)C(C)(C)C)C(=O)NS(=O)(=O)C1(CC(C)C)CC1` [Compound 31, {1-[2-[1-(1-Isobutyl-cyclopropanesulfonylaminocarbonyl)-2-vinyl-cyclopropylcarbamoyl]-4-(7-methoxy-2-phenyl-quinolin-4-yloxy)-pyrrolidine-1-carbonyl]-2,2-dimethyl-propyl}-carbamic acid tert-butyl ester], the IC50 in assay [1] (IC50 range) is < 50 nM. For the same compound, in assay [2] (Hepatitis C virus, Huh-7), the EC50 was 50 to 500 nM.
For `C=C[C@@H]1C[C@]1(NC(=O)[C@@H]1C[C@@H](Oc2cc(-c3ccccc3)nc3cc(OC)ccc23)CN1C(=O)[C@@H](NC(=O)OC(C)(C)C)C(C)(C)C)C(=O)NS(=O)(=O)C1(CC2CCC2)CC1` [Compound 32, {1-[2-[1-(1-Cyclobutylmethyl-cyclopropanesulfonylaminocarbonyl)-2-vinyl-cyclopropylcarbamoyl]-4-(7-methoxy-2-phenyl-quinolin-4-yloxy)-pyrrolidine-1-carbonyl]-2,2-dimethyl-propyl}-carbamic acid tert-butyl ester] the same measures were < 50 nM and < 50 nM.
On to `C=CCCCCCCCCC1(S(=O)(=O)NC(=O)C2(NC(=O)C3CC(Oc4cc(-c5ccccc5)nc5cc(OC)ccc45)CN3C(=O)C(NC(=O)OC(C)(C)C)C(C)(C)C)CC2C=C)CC1` (centres unmarked) [Compound 33], for which the IC50 in assay [1] (read-out: IC50 range) is < 50 nM. For the same compound, the EC50 in assay [2] was in the range of 50 to 500 nM.
For `C=CCCCCCCCC1(S(=O)(=O)NC(=O)C2(NC(=O)C3CC(Oc4cc(-c5ccccc5)nc5cc(OC)ccc45)CN3C(=O)C(NC(=O)OC(C)(C)C)C(C)(C)C)CC2C=C)CC1` (centres unmarked) [Compound 34, (1-{4-(7-Methoxy-2-phenyl-quinolin-4-yloxy)-2-[1-(1-non-8-enyl-cyclopropanesulfonylaminocarbonyl)-2-vinyl-cyclopropylcarbamoyl]-1-pyrrolidine-1-carbonyl}-2,2-dimethyl-propyl)-carbamic acid tert-butyl ester] the same measures were < 50 nM and < 50 nM.

The values above are taken from patent publication US6878722B2, “Substituted cycloalkyl P1′ hepatitis C virus inhibitors” (Bristol-Myers Squibb Company, priority 2002, dated 2005).
